Assay results from patent US20240324593A1, “OCTENIDINE COMPOSITIONS AND METHODS OF USE THEREOF” (Solventum Intellectual Properties Company, priority 2021, published 2024).
Counter-ions that a name gives are not always drawn.

Assays:
[1] = Antimicrobial Efficiency Test, other antimicrobials with carnitine enhancers (Table 5); format: cell-based; details: with versus without carnitine enhancer
Procedure: Solutions of water, carnitine enhancer, and various other antimicrobials (i.e., chlorhexidine gluconate, benzalkonium chloride, polyhexamethylene biguanide) were prepared according to the procedure described immediately above.
Ex vivo porcine mucosa is transported to laboratory on ice pack and then trimmed and transferred in to RPMI 1640+2% PS media. A 5 mm biopsy punch is used to cut samples for assay. Remove most of the remaining muscle tissue with a fresh scalpel blade. Rinse 3× with 10±0.5 ml RPMI no ABX, no FCS. Transfer to incubator. Set up a 6 well plate with 1.5±0.2 mL RPMI (no ABX, no FCS) in each well and a 0.4 μm transwell insert. Transfer tissue explants mucosal side up to the insert (3 explants/well).
Passage overnight culture 1:10 into THB and return to shaking incubator for 2-3 hours. Remove 1 mL of passage culture from test tube and place in sterile microcentrifuge tube. Centrifuge (1±0.5 min at max speed) to pellet. Wash pellet with 1±0.1 mL RPMI, no ABX, no FCS. Centrifuge to pellet and re-suspend in 1±0.1 mL fresh RPMI. Check OD 600 to determine bacterial density and dilute as necessary to achieve ˜1E8 CFU/ml. Add bacteria: 2±1 μl per explant and return to incubator to infect 4±0.15 h.
Apply 50± μl of formulation per explant (mucosa side). Incubate at 37±2° C. for 24±0.5 h.
Remove tissue from transwells and place in appropriate neutralizer. Sonicate samples and vortex (30±5 second vortex, 2±0.1 minutes sonicate, and then 30±5 second vortex). Plate on Mannitol Salt Agar selective agar or Blood Agar at appropriate dilution and store dilutions at 4±2° C. The following day count plates and if TNTC, re-plate at higher dilution.

[2] = Homogeneity of the composition / precipitation of octenidine; format: physicochemical; details: aqueous composition of octenidine hydrochloride with enhancer
Procedure: Water and the carnitine enhancer (i.e., carnitine inner salt, carnitine tartrate tartaric acid, carnitine fumarate, or acetyl carnitine) to a 20 mL glass vial mixed with magnetic stirring. Octenidine hydrochloride (10% solution in 50:50 weight percentage methanol:water) was further added in the amount described in the tables below. The pH was adjusted using 1N HCL or NaOH. Glycerol (3 g) and Natrosol 250 HHX […] were added to a flask and mixed with a DAC 400 FVZ SPEEDMIXER dual asymmetric centrifuge mixer (from Flacktek, Inc Landrum, S.C.) at 2500 rpm for 30 seconds. The glycerol and Natrosol 250 HHX (1.3 g) were combined with the enhancer solution in a 40 gms Flack Tec cup and mixed for an additional 30 seconds at 2500 rpm. The resulting solutions were homogenous. Refer to Examples 1-36 below (total weight percentages of octenidine hydrochloride and carnitine enhancer within composition are provided in tables; glycerol about 8-9 wt %; Natrosol 250 HHX about 2-3 wt %; and water makes up the difference). The solutions of Examples 1-27 below were subjected to antimicrobial testing according to the method below.
As described above, aqueous compositions including only octenidine hydrochloride and a respective enhancer were also prepared (i.e., absent glycerol and Natrosol 250 HHX), similar to the formulations described in Tables 1-5. All compositions formed homogenous solutions. […]

[3] = background statement; cited from earlier work
[4] = background statement; cited from earlier work; remark: listed apart in the source
[5] = background statement; cited from earlier work; remark: listed apart in the source
[6] = background statement; cited from earlier work; remark: listed apart in the source

## N=C(NCCCCCCNC(=N)NC(=N)Nc1ccc(Cl)cc1)NC(=N)Nc1ccc(Cl)cc1.O=C(O)[C@H](O)[C@@H](O)[C@H](O)[C@H](O)CO.O=C(O)[C@H](O)[C@@H](O)[C@H](O)[C@H](O)CO [chlorhexidine gluconate]
[1]
  antimicrobial activity in the presence of carnitine enhancers (in words): performed better in the absence of carnitine enhancer

## C[N+](C)(C)C[C@H](O)CC(=O)[O-].O=C(O)/C=C/C(=O)O [carnitine fumarate, L-Carnitine fumarate]
[2]
  homogenous solution or precipitation of octenidine: resulted in the precipitation of octenidine

## polyhexamethylene biguanide [polyhexamethylene biguanidine]
[1]
  antimicrobial activity in the presence of carnitine enhancers (in words): performed better in the absence of carnitine enhancer

## benzalkonium chloride
[1]
  antimicrobial activity in the presence of carnitine enhancers (in words): No effect

## CCCCCCCCN=c1ccn(CCCCCCCCCCn2ccc(=NCCCCCCCC)cc2)cc1 [octenidine, octenidine hydrochloride]
[3]
  contact dermatitis: does not cause contact dermatitis
[4]
  absorption through skin or mucous membranes: not absorbed
[5]
  cytotoxicity relative to chlorhexidine: less cytotoxic than chlorhexidine
[6]
  antimicrobial efficacy relative to chlorhexidine: 3-10 times
